Results published in patent publication US20240390434A1, “PROBIOTIC ENHANCERS AND USES THEREOF” (Blis Technologies Limited, priority 2021, published 2024).

Key:
Type in all cases: cell-based
S. aureus A222 = test: Deferred antagonism assay, producer S. salivarius K12; conditions: K12
Method: (§1) 1-2 producer strain colonies were transferred from a stock plate into 900 μL of suspension solution using a fresh cotton swab. Following this, suspensions were vortexed, and a sample was inoculated onto solid culture media using a fresh cotton swab. The inoculation was a streak that runs diametrically across the agar plate in a 1.5 cm wide strip. The plate was then incubated. Following incubation all visible colonies were removed by swabbing them from the agar surface. The plates were then treated with chloroform by dispensing 2 ml of chloroform onto 4 cm×4 cm piece of cloth and sealing the inverted agar plate on top for 30 minutes. The plates were then air dried for 30 minutes following chloroforming. 1-2 indicator strain colonies were then transferred from a stock plate into complementary suspension solution. The suspensions were then vortexed, and a sample was inoculated onto the same agar surface. These samples were streaked in a perpendicular direction to the initial producer streak.
(§2) Each indicator streak was prepared with fresh a suspension containing cells from a corresponding stock plate containing the indicator strain of interest. Indicator strains suspension samples were transferred using a fresh cotton swab. Results were measured by qualitatively reviewing the subsequent (if any) sizes of the zones of inhibition (ZOI) of indicator strain colony growth. A positive result is when there is a distinctive reduction or complete inhibition of indicator colony growth on the culture medium.
(§3) CABCa agar plates containing various concentrations of saccharide were prepared according to the methods described in Method 1. Producer strains were transferred from stock agar plates into 900 μL THB using a fresh cotton swab. A plastic spread plater was cut to approximately 1.2 cm width and then dipped into ethanol and left to air dry to ensure sterility. A 100 μL sample of the producer strain suspension was then dispensed onto the agar surface in a straight line running diametrically across the agar surface in (approximately) 20 μL spots. The spots were spaced approximately 1.5 cm apart from each other. The plastic spreader was then used to evenly distribute the spots across the agar surface in a 1.5 cm wide strip. This step was taken to ensure an even producer streak was inoculated onto the agar surface and provided an approximate measure of the initial inoculum concentration. Separate plastic spreaders were used for samples containing different producer strains. The samples were left to soak into the agar surface until there was no visible liquid remaining on the agar surface (approximately 20 minutes). Following producer streak preparations, the deferred antagonism assay protocol was followed as per Method 2. Results were recorded by measuring the size of the zone of inhibition (ZOI) in mm.
(§4) A dose response assay was carried out according to method 3 above, except a 1.2 cm streak was used. For the individual saccharide testing the pH of the producer streak was adjusted after the growth of producer to change the acidic conditions.
(§5) A deferred antagonism assay was conducted using K12 or M18 raw ingredient suspended in Todd Hewitt broth (THB). This was spread as a 1.2 cm streak containing approximately 1-2×10^6 cfu down the middle of a CABCa control or CABCa galactose supplemented test plate. After 18 hrs growth at 37° C. with 5% CO2, bacterial growth was removed, and the pH of the agar in the initial streak was measured and adjusted to a pH of 6.5-7.5 using 0.5M sodium carbonate pH11 before sterilizing the agar surface using chloroform vapor. Bacterial test strains were suspended in i-THB before being swabbed across the plates perpendicular to the initial streak. Plates were incubated for a further 18 hrs incubation at 37° C. with 5% CO2 before measuring (mm) any zones of inhibition for each test strain, […]

S. mutans OMZ175 = test: as above; conditions: Streptococcus mutans, OMZ175, K12, read-out: Size of zone inhibition normalised to control, S. mutans OMZ175
Method: as §1, §2, §3, §4, §5

S. pneumoniae D39 = test: as above; conditions: Streptococcus pneumoniae, D39, K12, read-out: Size of zone inhibition normalised to control, S. pneumoniae D39
Method: as §1, §2, §3, §4, §5

S. constellatus T29 = test: as above; conditions: Streptococcus constellatus, T29, K12, read-out: Size of zone inhibition normalised to control, S. constellatus T29
Method: as §1, §2, §3, §4, §5

[1] = test system: S. saprophyticus ATCC 15305; test: as above; conditions: Staphylococcus saprophyticus, ATCC15305, K12, read-out: Size of zone inhibition normalised to control, S. saprophyticus ATCC 15305
Method: as §1, §2, §3, §4, §5

S. pyogenes 71-698 = test: as above; conditions: Streptococcus pyogenes, 71698, K12, read-out: Size of zone inhibition normalised to control, S. pyogenes 71-698
Method: as §1, §2, §3, §4, §5

indicator strains = test: Deferred antagonism assay, producer S. salivarius M18: total strains inhibited
Method: as §1, §2, §3, §4, §5

In the case of O=C[C@H](O)[C@@H](O)[C@@H](O)[C@H](O)CO [Galactose, D-galactose], the “Inhibitory activity of S. salivarius K12 in presence of saccharides, S. aureus A222” value (S. aureus A222; saccharide range 0.83%-3.3% w/v) is reported as “✓”, the zone of inhibition at 0.5 % strength (S. aureus A222; Staphylococcus aureus, A222, Galactose 0.5% w/w, read-out: Size of zone inhibition normalised to control, S. aureus A222) is reported as 12 mm and the zone of inhibition at 1.25 % strength (S. aureus A222; Staphylococcus aureus, A222, Galactose 1.25% w/w, read-out: Size of zone inhibition normalised to control, S. aureus A222) is reported as 8 mm. For the same compound, the zone of inhibition at 1.7 % strength (S. aureus A222; Staphylococcus aureus, A222, Galactose 1.7% w/w, read-out: Size of zone inhibition normalised to control, S. aureus A222) was 9 mm, the zone of inhibition at 2.5 % strength (S. aureus A222; Staphylococcus aureus, A222, Galactose 2.5% w/w, read-out: Size of zone inhibition normalised to control, S. aureus A222) was 6 mm and the zone of inhibition at 3.3 % strength (S. aureus A222; Staphylococcus aureus, A222, Galactose 3.3% w/w, read-out: Size of zone inhibition normalised to control, S. aureus A222) was 0 mm. It also gave a zone of inhibition at 5 % strength (S. aureus A222; Staphylococcus aureus, A222, Galactose 5% w/w, read-out: Size of zone inhibition normalised to control, S. aureus A222) of 0 mm, a zone of inhibition at 0.5 % strength (S. mutans OMZ175; Galactose 0.5% w/w) of 10 mm and a zone of inhibition at 1.25 % strength (S. mutans OMZ175; Galactose 1.25% w/w) of 10 mm. It also gave a zone of inhibition at 1.7 % strength (S. mutans OMZ175; Galactose 1.7% w/w) of 0 mm, a zone of inhibition at 2.5 % strength (S. mutans OMZ175; Galactose 2.5% w/w) of 0 mm and a zone of inhibition at 3.3 % strength (S. mutans OMZ175; Galactose 3.3% w/w) of 0 mm. For the same compound, the zone of inhibition at 5 % strength (S. mutans OMZ175; Galactose 5% w/w) was 0 mm, the zone of inhibition at 0.5 % strength (S. pneumoniae D39; Galactose 0.5% w/w) was 8 mm and the zone of inhibition at 1.25 % strength (S. pneumoniae D39; Galactose 1.25% w/w) was 3 mm. The zone of inhibition at 1.7 % strength (S. pneumoniae D39; Galactose 1.7% w/w) was 2 mm, the zone of inhibition at 2.5 % strength (S. pneumoniae D39; Galactose 2.5% w/w) was 6 mm and the zone of inhibition at 3.3 % strength (S. pneumoniae D39; Galactose 3.3% w/w) was 0 mm. It also gave a zone of inhibition at 5 % strength (S. pneumoniae D39; Galactose 5% w/w) of 0 mm, a zone of inhibition at 0.5 % strength (S. constellatus T29; Galactose 0.5% w/w) of 14 mm and a zone of inhibition at 1.25 % strength (S. constellatus T29; Galactose 1.25% w/w) of 15 mm. It also gave a zone of inhibition at 1.7 % strength (S. constellatus T29; Galactose 1.7% w/w) of 12 mm, a zone of inhibition at 2.5 % strength (S. constellatus T29; Galactose 2.5% w/w) of 13 mm and a zone of inhibition at 3.3 % strength (S. constellatus T29; Galactose 3.3% w/w) of 10 mm. The zone of inhibition at 5 % strength (S. constellatus T29; Galactose 5% w/w) was 0 mm, the zone of inhibition at 0.5 % strength ([1]; Galactose 0.5% w/w) was 0 mm and the zone of inhibition at 1.25 % strength ([1]; Galactose 1.25% w/w) was 0 mm. For the same compound, the zone of inhibition at 1.7 % strength ([1]; Galactose 1.7% w/w) was 0 mm, the zone of inhibition at 2.5 % strength ([1]; Galactose 2.5% w/w) was 0 mm and the zone of inhibition at 3.3 % strength ([1]; Galactose 3.3% w/w) was 0 mm. The zone of inhibition at 5 % strength ([1]; Galactose 5% w/w) was 0 mm, the zone of inhibition at 0.5 % strength (S. pyogenes 71-698; Galactose 0.5% w/w) was 4.5 mm and the zone of inhibition at 1.25 % strength (S. pyogenes 71-698; Galactose 1.25% w/w) was 3.5 mm. For the same compound, the zone of inhibition at 1.7 % strength (S. pyogenes 71-698; Galactose 1.7% w/w) was 3.5 mm, the zone of inhibition at 2.5 % strength (S. pyogenes 71-698; Galactose 2.5% w/w) was 5.5 mm and the zone of inhibition at 3.3 % strength (S. pyogenes 71-698; Galactose 3.3% w/w) was 1.5 mm. For the same compound, the zone of inhibition at 5 % strength (S. pyogenes 71-698; Galactose 5% w/w) was 0 mm, the Total stains inhibited (indicator strains; Galactose 0.5% w/w) was 5/7 and the Total stains inhibited (indicator strains; Galactose 1.25% w/w) was 4/7. The Total stains inhibited (indicator strains; Galactose 1.7% w/w) was 1/7, the Total stains inhibited (indicator strains; Galactose 2.5% w/w) was 2/7 and the Total stains inhibited (indicator strains; Galactose 3.3% w/w) was 5/7. For the same compound, the Total stains inhibited (indicator strains; Galactose 5% w/w) was 2/7.
